Measurements as given in US7847152B2, “Use of tryptophan indole and anthranilate analogs as plant transformation selection agents” (The Board of Trustees of the University of Illinois, priority 2006, dated 2010).
“Also recorded” adds a separate entry of the source.

Legend:
[1] = test system: ASA2 expressing transgenic tobacco (line ASTIV); assay: Leaf callus formation and growth of ASA2 expressing (5MT resistant) tobacco plants; format: cell-based, Nicotiana tabacum; settings: 300 μm analog; for callus and shoot formation of ASA2 expressing leaf discs: after four/six weeks
Description: (§1) The concentrations listed in Table 1 are for illustrative purposes and should not be construed as a limited range. Seedling growth inhibition was studied by placing a total of 45 surface-sterilized seeds of either the wild-type (WT) tobacco (Nicotiana tabacum cv. Petit Havana SR1) or the ASA2 expressing transgenic plants previously obtained (Zhang et al., 2001), on Murashige-Skoog medium supplemented with 3% sucrose, vitamins, 0.8% agar and various concentrations of the different analogs (see Table 1). Seed germination and root formation were measured after 2 weeks, at 28° C. under fluorescent light. The analogs listed in Table 1 were obtained from Sigma-Aldrich (St. Louis, Mo.) or Acros Organics (Morris Plains, N.J.).
(§2) Leaf callus formation was studied on the nutrient medium described herein using a total of 30 leaf discs at 28° C. under fluorescent light. After 2 weeks, callus formation was measured and after 4 weeks shoot production was recorded.
(§3) Leaf callus/shoot formation was studied on Tobacco Regeneration Medium that was MS basal medium with 88 μM 6-benzyladenine (BA) and 0.5 μM naphthalene acetic acid (NAA) and various concentrations of different Trp and indole analogs using a total of 30 leaf discs (6 mm each in diameter) from either the untransformed wild type (WT) tobacco or the ASA2 expressing transgenic line transformed with pAST-IV vector (line ASTIV) at 28° C. under fluorescent light as described above. Callus formation and shoot production was visually evaluated after 2, 4 and 6 weeks. Seedling growth inhibition was studied as described herein.

[2] = test system: tobacco shoot producing leaf discs; assay: Discrimination between wild type and ASA2 expressing tobacco shoot producing leaf discs; format: cell-based
Description: Various concentrations of the different analogs were tested on maize, soy bean, and tobacco that includes growth inhibition test of germination, leaf callus formation test, and other growth inhibition tests (FIGS. 15-38).
as §3

[3] = test system: tobacco leaf discs transformed with CaMV35S-ASA2; assay: Selection of A. tumefaciens (pC2ASA2) transformed tobacco leaf discs on analog; format: cell-based, Nicotiana tabacum L. cv. Xanthi; settings: for resistant plants obtained (total of two experiments): 300 μm on TRM, 150 leaf discs for 4MI, 135 leaf discs for 7MT; for optimal concentration for selection of putative transformants: on TRM
Description: (§4) A vector pC2ASA2 was used, which contains a full length 2,144-bp AS feedback-insensitive α-subunit (ASA2) cDNA, encoding 616 amino acids including a putative transit peptide and 204 bp of 3′non-coding region driven by the CaMV35S promoter. pC2ASA2 was electroporated into Agrobacterium tumefaciens strain EHA105 and then used for the leaf disc transformation. Shoots of tobacco (Nicotiana tabacum L. cv. Xanthi) plants were maintained as in vitro stock cultures in Magenta boxes containing MS basal medium (Murashige and Skoog 1962) with 2 g 1-1 Gelrite® and leaves from these shoots were sources of explants for transformation. The growth conditions were 16-h photoperiod with a temperature of 28° C., florescent lamps providing a photosynthetic photon flux density of 150 μmol m-2 s-1 at the shelf surface. For segregation tests or for seedling growth inhibition tests on different analogs, 50 seeds/plate were surface sterilized with a solution of distilled water-Clorox (80:20; 1.25% Na hypochlorite) for 20 min containing a few drops of Tween 20™ and then rinsed with sterile water before spreading them on MS basal medium plates containing the appropriate selective agent.
Leaf discs (6 mm each in diameter) from 20 leaves of WT tobacco were used for each transformation experiment. After 6 weeks of selection on TRM with either 300 μM 4MI or 300 μM 7MT and 500 mg/l timentin to eliminate A. tumefaciens, the shoots regenerating from the callus were isolated and transferred to the Rooting Medium with analogs to initiate root growth. After root induction, the plantlets were transferred into soil and grown to maturity in a greenhouse. The T1 seeds were plated on either 4MI or 7MT for segregation tests and to obtain homozygous lines.
The ASA2 gene driven by the CaMV 35S promoter was transferred into tobacco leaf discs via the A. tumefaciens-mediated transformation method. Putative transformants were selected on TRM using the optimal concentration (300 μm) of 4MI and 7MT for selection. 31 resistant plants were obtained in two different experiments: 21 one on 4MI from a total of 150 leaf discs (10 resistant plants from 80 leaf discs in experiment 1 and 11 resistant plants from 70 leaf discs in experiment 2) and 10 on 7MT from a total of 135 leaf discs (6 resistant plants from 70 leaf discs in experiment 1 and 4 resistant plants from 65 leaf discs in experiment 2). […] GUS activity was assessed histochemically in PCR-GUS positive lines using leaf pieces confirming the results obtained with the molecular screening. When the transgenic plants were tested for ASA2 gene expression by RT-PCR an 815-bp fragment was amplified from total RNA extracted from young leaves from 15 transgenic lines while no fragment was detected in the WT. […]

[4] = test system: ASA2 expressing transgenic tobacco seedlings; assay: Seedling growth inhibition test, ASA2 expressing transgenic tobacco; format: in vivo, Nicotiana tabacum; settings: 75 μm analog; for germination and growth of T2 seed of homozygous ASA2 lines: four lines, pC2ASA2 transformants; for transgenic seedling growth: line ASTIV
Description: as §1, with “Seed germination and root formation were measured after 2 weeks, at 28° C. under fluorescent light.” left out
as §4
To test for the segregation of the transgene in the T1 generation, seeds of the transgenic lines were germinated on medium containing either 75 4MI or 75 μm 7MT for 21 days. The ratios of resistant/sensitive seedlings were for most of the lines close to the expected 3:1 ratio confirming a single nuclear site of insertion for the 15 lines tested.

[5] = test system: wild-type (WT) tobacco seedlings; assay: Seedling growth inhibition test, wild-type tobacco; format: in vivo, Nicotiana tabacum; settings: for germination of WT and ASTIV seeds on analog containing medium / WT seedling growth: 75 μm analog; for WT seedling growth: after two weeks
Description: as §1, §4

[6] = test system: Arabidopsis germinating seedlings; assay: Discrimination between wild type and ASA2 expressing Arabidopsis germinating seedlings; format: in vivo; settings: Arabidopsis seeds
[7] = test system: tobacco leaf discs bombarded with vector pAST-IV; assay: Selection of plastid transformants (pAST-IV) on analog; format: cell-based, Nicotiana tabacum cv. Havana; settings: 60 leaf discs bombarded, 6-8 weeks selection
Description: DNA preparation, precipitation onto gold particles, and bombardment were performed as described previously (Svab & Maliga P, 1993) using 0.6 μm gold particles (Bio-Rad, Hercules, Calif.) as micro projectiles. Any suitable particle bombardment procedure can be used. Briefly, the plasmid containing the marker gene and a gene of interest are coated onto gold or tungsten microparticles. The coated particles are air dried and loaded on to a particle gun for particle bombardment into the desired tissue. Nicotiana tabacum cv. Havana was used in the experiments. Green calli and shoots resistant to either 7-MT or 4-MI were obtained after 6-8 wks of selection on RMOP medium (Svab et al., 1990) and subjected to three additional rounds of selection for the homoplastomic condition.
Six to eight weeks after bombardment, 28 independent resistant shoots/calli were recovered from 60 leaf discs bombarded with vector pAST-IV. The 28 lines selected directly for 4MI or 7MT resistance were tested by the PCR reaction using either primers specific for ASA2 gene (L40 and L 39) or a primer specific to the ASA2 coding region (L40) and a primer that is located in the plastid genome outside the flanking region of the vector (L29). […] A 815 bp (L40-L39) and a 2.1 kb (L40-L29) fragments were reproducibly detected in 5 transgenic of the 28 in dependent lines (3 from 7MT and 2 from 4 MI). […]

[8] = test system: wild-type (WT) tobacco leaf discs; assay: Leaf callus/shoot formation inhibition, wild-type tobacco leaf discs; format: cell-based, Nicotiana tabacum; settings: for effectiveness as selection agent among the analogs tested: 9 Trp analogs and 7 indole analogs tested; for callus production of the wild-type / shoot formation of WT leaf discs: 300 μm analog
Description: as §2, §3

Cc1cccc2c(CC(N)C(=O)O)c[nH]c12 (racemic) [7MT, 7-methyl-DL-tryptophan]
growth of the ASA2 expressing (5-MT resistant) plants [1]: not affected
callus and shoot formation of ASA2 expressing leaf discs [1]: formed callus and produced shoots
concentration for discriminating between wild type and ASA2 expressing tobacco shoot producing leaf discs [2]: 7MT 400 μM
resistant plants obtained (total of two experiments) [3]: 10
optimal concentration for selection of putative transformants [3]: 300 μm
germination and growth of T2 seed of homozygous ASA2 lines [4]: all 100 seeds germinated and grew normally
transgenic seedling growth [4]: grew well
transgenic seedling development after six weeks [4]: growing with normal true leaf development
germination of WT and ASTIV seeds on analog containing medium [5]: germinate almost equally
WT seedling growth [5]: started to bleach, ceased to grow and eventually died
growth of the wild-type seedlings/roots ([5]; 300 μm analog): completely inhibited
concentration for discriminating between wild type and ASA2 expressing Arabidopsis germinating seedlings [6]: 7MT 300 μM
PCR-confirmed transgenic lines among 28 independent resistant lines [7]: 3
effectiveness as selection agent among the analogs tested [8]: most effective
effectiveness as selection agent among the analogs tested ([8]; listed as 7-MT): enhanced selection properties
callus production of the wild-type [8]: greater inhibition; also recorded: inhibited
shoot formation of WT leaf discs [8]: little shoot formation

CC(=O)c1c[nH]c2ccccc12 [3-acetylI]
concentration for discriminating between wild type and ASA2 expressing tobacco shoot producing leaf discs [2]: 3-acetylI 500 μM

Fc1cccc2[nH]ccc12 [4FI, 4-Fluoroindole]
concentration for discriminating between wild type and ASA2 expressing Arabidopsis germinating seedlings [6]: 4FI 70 μM

Cc1cccc2[nH]ccc12 [4MI, 4-Methylindole]
growth of the ASA2 expressing (5-MT resistant) plants [1]: not affected
callus and shoot formation of ASA2 expressing leaf discs [1]: formed callus and produced shoots
concentration for discriminating between wild type and ASA2 expressing tobacco shoot producing leaf discs [2]: 4MI 300 μM
resistant plants obtained (total of two experiments) [3]: 21
optimal concentration for selection of putative transformants [3]: 300 μm
germination and growth of T2 seed of homozygous ASA2 lines [4]: all 100 seeds germinated and grew normally
transgenic seedling growth [4]: grew well
transgenic seedling development after six weeks [4]: growing with normal true leaf development
germination of WT and ASTIV seeds on analog containing medium [5]: germinate almost equally
WT seedling growth [5]: started to bleach, ceased to grow and eventually died
growth of the wild-type seedlings/roots ([5]; 300 μm analog): completely inhibited
wild-type plant germination ([5]; 300 μm analog): inhibited
PCR-confirmed transgenic lines among 28 independent resistant lines [7]: 2
effectiveness as selection agent among the analogs tested [8]: most effective
effectiveness as selection agent among the analogs tested ([8]; listed as 4-MI): enhanced selection properties
callus production of the wild-type [8]: greater inhibition; also recorded: inhibited
shoot formation of WT leaf discs [8]: little shoot formation

Cc1cccc2[nH]cc(C[C@H](N)C(=O)O)c12 [4MT, 4-methyltrypthophan]
concentration for discriminating between wild type and ASA2 expressing Arabidopsis germinating seedlings [6]: 4MT 70 μM

Nc1ccc(F)cc1C(=O)O [5FA]
concentration for discriminating between wild type and ASA2 expressing tobacco shoot producing leaf discs [2]: 5FA 150 μM

Fc1ccc2[nH]ccc2c1 [5FI, 5-Fluoroindole]
concentration for discriminating between wild type and ASA2 expressing Arabidopsis germinating seedlings [6]: 5FI 20 μM

N[C@@H](Cc1c[nH]c2ccc(O)cc12)C(=O)O [5HT, 5-hydroxyl-L-tryptophan]
concentration for discriminating between wild type and ASA2 expressing Arabidopsis germinating seedlings [6]: 5HT 200 μM

Cc1ccc(N)c(C(=O)O)c1 [5MA, 5-methylanthranilate]
concentration for discriminating between wild type and ASA2 expressing tobacco shoot producing leaf discs [2]: 5MA 800 μM

COc1ccc2[nH]ccc2c1 [5MI, 5-Methoxyindole]
concentration for discriminating between wild type and ASA2 expressing tobacco shoot producing leaf discs [2]: 5MI 1000 μM

Cc1ccc2[nH]cc(C[C@H](N)C(=O)O)c2c1 [5MT, 5-methyltrypthophan]
concentration for discriminating between wild type and ASA2 expressing Arabidopsis germinating seedlings [6]: 5MT 200 μM

Cc1cccc(N)c1C(=O)O [6MA, 6-methylanthranilate]
concentration for discriminating between wild type and ASA2 expressing tobacco shoot producing leaf discs [2]: 6MA 70 μM

COc1cccc2cc[nH]c12 [7MI, 7-Methoxyindole]
concentration for discriminating between wild type and ASA2 expressing tobacco shoot producing leaf discs [2]: 7MI 1000 μM

C[C@](N)(Cc1c[nH]c2ccccc12)C(=O)O [α-MT, α- methyltrypthophan]
concentration for discriminating between wild type and ASA2 expressing Arabidopsis germinating seedlings [6]: α-MT 20 μM
